These results are taken from patent US20070213324A1 (priority 2006, published 2007).

Data set [1] concerns production of thromboxane in platelets. Conditions: cited from earlier work.
In data set [2] the test system is plasma proteins. The note with it: cited from earlier work.
The conditions of data set [3]: cited from earlier work.
Data set [4] relates to functional recovery of patients with a sprained ankle. In words: Phase II functional recovery.
For data set [5] the following is noted: cited from earlier work. The source holds these as a separate data set.
For data set [6], the system named is pain produced by a sprained ankle. In words: Phase II evaluation of pain by visual analogue scale (VAS). It is filed as in vivo, human. Conditions: for time from administration to analgesic effect (VAS, significant versus placebo): carisoprodol 200 mg / meloxicam 15 mg, sprained ankle.
Data set [7] concerns platelet aggregation induced by collagen or arachidonic acid. Conditions: cited from earlier work.
Data set [8] is described as follows: Phase I bioavailability study, single dose and steady state. Conditions: carisoprodol, any condition.
Procedure: Sixty healthy male volunteers participated in the study and were divided into four treatment groups. […] The study was prospective, single-blind, parallel, longitudinal, and comparative with a placebo and with the components of the combination administered separately, with randomized distribution into 4 groups.
A pharmacokinetic study was conducted on day 1 and day 14 so that bioavailability could be clearly identified for single dose and for multiple doses, and so that the bioequivalence of the combined product could be compared to the individual products.
For data set [9] the following is noted: in vivo.

In the case of `Cc1cnc(NC(=O)C2=C(O)c3ccccc3S(=O)(=O)N2C)s1` [Meloxicam, 4-hydroxy-2-methyl-N-(5-methyl-2-thiazolyl)-2H-1,2-benzothiazine-3-carboxamide-1,1-dioxide], the “production of thromboxane in platelets” value in [1] is “significantly reduce”. Also, the “bound to plasma proteins” value in data set [2] is listed as 99.5%. The solubility in methanol result in data set [3] (methanol) is listed as “very slightly soluble”. The “solubility in strong acids and bases” value in data set [3] (strong acids and bases) is “higher solubility”. For the same compound, in data set [3] (water), the solubility in water entry is on record as “practically insoluble in water”. For the same compound, in data set [4] (1440 minutes), the “p versus placebo, functional recovery” value is 0.037. For the same compound, the “time at which functional recovery is statistically different from placebo” value in data set [4] (in vivo) amounted to 24 h. The “time from administration to functional recovery (significant versus placebo)” value in data set [4] (sprained ankle) stood at 1440 min. For the same compound, the “time of second maximum concentration peak” value in data set [5] (after administration, enterohepatic circulation) is 12 to 14 h. Moreover, in [5] (days of dosage), the “time to steady state” value is given as 5 days. The “effect of food intake on absorption” value in data set [5] (in vivo) is reported as “not altered”. In addition, the absorbed after administration in data set [5] (orally) is given as 89%. In addition, the entries for the “time from administration to analgesic effect (VAS, significant versus placebo)” value in data set [6] and in data set [6] (listed as meloxicam) were “up to 360 minutes” and 360 min, respectively. Moreover, the “p versus placebo, VAS” value in data set [6] (minute 360) was determined as 0.021. Moreover, in data set [7], the “inhibition of platelet aggregation” value is “does not inhibit”.

A word on the half-life: it is how long it takes for the measured level to halve. As to `CCCC(C)(COC(N)=O)COC(=O)NC(C)C` (stereo not shown) [Carisoprodol], the “bioequivalence, combined versus on its own” value in data set [8] is listed as “no bioequivalence in any condition”. Besides, in data set [5] (in vivo), the half-life is 8 h and the “time of initial musculoskeletal relaxant effect” value is 30 to 45 min. Besides, in [9], the blood pressure entry is reported as “decrease in blood pressure”; the “changes in the physiological tests (reaction time, awareness)” value is on record as “did not produce any changes”; the “sedative effect: MINIMENTAL test before versus after administration” value is “no significant differences”.
